Results taken from patent US20220389009A1, “SUBSTITUTED 1,6-NAPHTHYRIDINE INHIBITORS OF CDK5” (Goldfinch Bio, Inc., priority 2019, published 2022).

Legend:
CDK5/p25 = CDK5/p25 (Homo sapiens, UniProt Q00535); assay: CDK5 mobility shift assay (enzymatic activity of CDK5/p25); type: biochemical; conditions: for IC50: 0.154 nM CDK5/p25, FL peptide 29, 60 min at room temperature, read-out: CDK5 IC50; for CDK5/CDK2 specificity: fold more active against CDK5 than CDK2
In short: (§1)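 Phosphorylation of 1.5 μM fluorescent peptide was read by microfluidic mobility shift and fitted to IC50 (4-parameter), normalized to no-compound and no-enzyme controls. CDK5/p25 ran at 0.154 nM with […] ATP for 60 min, using peptide 29. CDK2/CycA2 ran at 1.25 nM with 37 μM ATP for 120 min, using peptide 18. Both included a 30-min compound preincubation in pH 7.5 buffer.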

CDK2/CycA2 = CDK2/CycA2 (Homo sapiens, UniProt P24941); assay: CDK2 mobility shift assay (enzymatic activity of CDK2/CycA2); type: biochemical; conditions: 1.25 nM CDK2/CycA2, 37 μM ATP, FL Peptide 18, 120 min at room temperature; read-out: CDK2 IC50
In short: as §1

Chain of CDK5/p25 (Q00535 whole entry): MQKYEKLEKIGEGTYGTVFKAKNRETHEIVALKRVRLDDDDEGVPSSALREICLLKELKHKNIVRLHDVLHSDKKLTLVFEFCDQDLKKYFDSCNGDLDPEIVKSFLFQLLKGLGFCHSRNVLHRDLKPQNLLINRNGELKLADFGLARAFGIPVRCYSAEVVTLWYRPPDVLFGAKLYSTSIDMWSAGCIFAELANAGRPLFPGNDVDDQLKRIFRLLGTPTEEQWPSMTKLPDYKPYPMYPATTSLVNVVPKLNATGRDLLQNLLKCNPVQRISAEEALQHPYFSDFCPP
Chain of CDK5/p25 (Q15078 99-307 partner limits assumed): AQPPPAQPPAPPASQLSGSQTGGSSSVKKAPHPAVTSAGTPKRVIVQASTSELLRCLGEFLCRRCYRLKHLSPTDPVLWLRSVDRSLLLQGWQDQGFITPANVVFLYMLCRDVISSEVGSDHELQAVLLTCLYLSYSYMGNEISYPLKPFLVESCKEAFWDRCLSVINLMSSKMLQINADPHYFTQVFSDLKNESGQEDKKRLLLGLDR

| SMILES | IC50 (CDK5/p25) | CDK5/CDK2 specificity (CDK5/p25) | IC50 (CDK2/CycA2) |
| --- | --- | --- | --- |
| CN1CCC([C@@](C)(O)c2ccc3cnc(Nc4ccc(-c5cc[nH]n5)cc4F)cc3n2)CC1 [Compound 414, (1R)-1-(7-[[2-fluoro-4-(1H-pyrazol-3-yl)phenyl]amino]-1,6-naphthyridin-2-yl)-1-(1-methylpiperidin-4-yl)ethanol] | < 0.01 µM | ++ (greater than 10-fold and less than or equal to 100-fold more active against CDK5 than CDK2) | 0.01 to 0.1 µM |
| Cc1cccc(Nc2cc3nc(S(=O)(=O)C4CCN(C)CC4)ccc3cn2)c1 [Compound 382] | < 0.01 µM | +++ (greater than 100-fold more active against CDK5 than CDK2) | 0.01 to 0.1 µM |
| CN1CCC(C(O)c2ccc3cnc(Nc4ccc(-n5ccc(CO)n5)cc4F)cc3n2)CC1 (single isomer, unassigned) [Compound 247, [7-([2-fluoro-4-[3-(hydroxymethyl)pyrazol-1-yl]phenyl]amino)-1,6-naphthyridin-2-yl](1-methylpiperidin-4-yl)methanol] | 0.01 to 0.1 µM | ++ (greater than 10-fold and less than or equal to 100-fold more active against CDK5 than CDK2) | > 1 µM |
| Cc1cccc(Nc2cc3nc(C(C)(O)C4CCN(C)CC4)ccc3cn2)c1 (stereo not drawn) [Compound 341] | < 0.01 µM | ++ (greater than 10-fold and less than or equal to 100-fold more active against CDK5 than CDK2) | 0.01 to 0.1 µM |
| CN1CCC(S(=O)(=O)c2ccc3cnc(Nc4ccc(-n5ccc(C(N)=O)n5)cc4F)cc3n2)CC1 [Compound 317, 1-(3-fluoro-4-[[2-(1-methylpiperidin-4-ylsulfonyl)-1,6-naphthyridin-7-yl]amino]phenyl)pyrazole-3-carboxamide] | < 0.01 µM | +++ (greater than 100-fold more active against CDK5 than CDK2) | 0.1 to 1 µM |
| COc1cc(Nc2cc3nc(S(=O)(=O)C4CCN(C)CC4)ccc3cn2)ccc1NS(C)(=O)=O [Compound 259] | < 0.01 µM | ++ (greater than 10-fold and less than or equal to 100-fold more active against CDK5 than CDK2) | 0.01 to 0.1 µM |
| CN1CCC(S(=O)(=O)c2ccc3cnc(Nc4ccc(-n5ccc(C(=O)O)n5)cc4F)cc3n2)CC1 [Compound 198, 1-(3-fluoro-4-((2-((1-methylpiperidin-4-yl)sulfonyl)-1,6-naphthyridin-7-yl)amino)phenyl)-1H-pyrazole-3-carboxylic acid] | < 0.01 µM | +++ (greater than 100-fold more active against CDK5 than CDK2) | 0.1 to 1 µM |
| CN1CCC(C(C)(O)c2ccc3cnc(Nc4ccc(-c5cccc(C#N)c5)cc4F)cc3n2)CC1 (stereo not drawn) [Compound 337] | 0.1 to 1 µM | ++ (greater than 10-fold and less than or equal to 100-fold more active against CDK5 than CDK2) | > 1 µM |
| CN1CCC(C(C)(O)c2ccc3cnc(Nc4ccc(-n5cccn5)cc4F)cc3n2)CC1 (single isomer, unassigned) [Compound 205, 1-(7-[[2-fluoro-4-(pyrazol-1-yl)phenyl]amino]-1,6-naphthyridin-2-yl)-1-(1-methylpiperidin-4-yl)ethanol] | 0.1 to 1 µM | ++ (greater than 10-fold and less than or equal to 100-fold more active against CDK5 than CDK2) | > 1 µM |
| CN1CCC(S(=O)(=O)c2ccc3cnc(Nc4ccc(CN5CCOCC5)cc4)cc3n2)CC1 [Compound 261] | < 0.01 µM | +++ (greater than 100-fold more active against CDK5 than CDK2) | 0.1 to 1 µM |
| OC(c1ccc2cnc(Nc3ccc(-n4cccn4)cc3F)cc2n1)C1(O)CCNCC1 (stereo not drawn) [Compound 209, 4-[(7-[[2-fluoro-4-(pyrazol-1-yl)phenyl]amino]-1,6-naphthyridin-2-yl) (hydroxy)methyl]piperidin-4-ol] | 0.1 to 1 µM | ++ (greater than 10-fold and less than or equal to 100-fold more active against CDK5 than CDK2) | > 1 µM |
| CCC(O)(c1ccc2cnc(Nc3ccc(-n4cccn4)cc3F)cc2n1)C1CCN(C)CC1 (stereo not drawn) [Compound 389] | > 1 µM | ++ (greater than 10-fold and less than or equal to 100-fold more active against CDK5 than CDK2) | > 1 µM |
| CC(c1ccc2cnc(Nc3ccc(-c4cccnc4)cc3F)cc2n1)C1CCN(C)CC1 (stereo not drawn) [Compound 314] | 0.01 to 0.1 µM | ++ (greater than 10-fold and less than or equal to 100-fold more active against CDK5 than CDK2) | > 1 µM |
| CN1CCC(S(=O)(=O)c2ccc3cnc(Nc4cccc(N5CCOC5=O)c4)cc3n2)CC1 [Compound 284] | < 0.01 µM | ++ (greater than 10-fold and less than or equal to 100-fold more active against CDK5 than CDK2) | 0.01 to 0.1 µM |
| CN1CCC([C@@](C)(O)c2ccc3cnc(Nc4ccc(-n5cc(C(=O)O)cn5)cc4F)cc3n2)CC1 [Compound 362, 1-[3-fluoro-4-([2-[(1R)-1-hydroxy-1-(1-methylpiperidin-4-yl)ethyl]-1,6-naphthyridin-7-yl]amino)phenyl]pyrazole-4-carboxylic acid] | < 0.01 µM | ++ (greater than 10-fold and less than or equal to 100-fold more active against CDK5 than CDK2) | 0.01 to 0.1 µM |
| C=C(c1ccc2cnc(Nc3ccc(-n4ccc(CO)n4)cc3F)cc2n1)C1CCN(C)CC1 [Compound 168, [1-[3-fluoro-4-([2-[1-(1-methylpiperidin-4-yl)ethenyl]-1,6-naphthyridin-7-yl]amino)phenyl]pyrazol-3-yl]methanol] | < 0.01 µM | +++ (greater than 100-fold more active against CDK5 than CDK2) | 0.1 to 1 µM |
| [O-][S@+](c1ccc2cnc(Nc3ccc(-n4cccn4)cc3F)cc2n1)C1CCNCC1 [Compound 117, N-[2-fluoro-4-(pyrazol-1-yl)phenyl]-2-[(S)-piperidine-4-sulfinyl]-1,6-naphthyridin-7-amine] | 0.1 to 1 µM | + (10-fold or less more active against CDK5 than CDK2) | > 1 µM |
| OCc1ccn(-c2ccc(Nc3cc4nc(NC5CCNCC5)ccc4cn3)c(F)c2)n1 [Compound 102, [1-(3-fluoro-4-[[2-(piperidin-4-ylamino)-1,6-naphthyridin-7-yl]amino]phenyl)pyrazol-3-yl]methanol] | < 0.01 µM | ++ (greater than 10-fold and less than or equal to 100-fold more active against CDK5 than CDK2) | 0.1 to 1 µM |
| CN1CCC(S(=O)(=O)c2ccc3cnc(Nc4ccccc4)cc3n2)CC1 [Compound 385] | < 0.01 µM | ++ (greater than 10-fold and less than or equal to 100-fold more active against CDK5 than CDK2) | 0.01 to 0.1 µM |
| NC(=O)c1cccc(-c2ccc(Nc3cc4nc(S(=O)(=O)C5CCN(CC6COC6)CC5)ccc4cn3)c(F)c2)c1 [Compound 326] | < 0.01 µM | +++ (greater than 100-fold more active against CDK5 than CDK2) | 0.1 to 1 µM |
| CN1CCC(S(=O)(=O)c2ccc3cnc(Nc4ccon4)cc3n2)CC1 [Compound 269] | 0.01 to 0.1 µM | + (10-fold or less more active against CDK5 than CDK2) | 0.1 to 1 µM |
| CN1CCC(S(=O)(=O)c2ccc3cnc(Nc4ccc(-c5cccn(C)c5=O)cc4F)cc3n2)CC1 [Compound 378] | 0.01 to 0.1 µM | +++ (greater than 100-fold more active against CDK5 than CDK2) | > 1 µM |
| CN1CCC(C(C)(O)c2ccc3cnc(Nc4ccc(-c5noc(=O)[nH]5)cc4F)cc3n2)CC1 (stereo not drawn) [Compound 355] | < 0.01 µM | ++ (greater than 10-fold and less than or equal to 100-fold more active against CDK5 than CDK2) | 0.01 to 0.1 µM |
| Fc1cc(-n2cccn2)ccc1Nc1cc2nc(C(F)(F)C3CCNCC3)ccc2cn1 [Compound 169, 2-[difluoro(piperidin-4-yl)methyl]-N-[2-fluoro-4-(pyrazol-1-yl)phenyl]-1,6-naphthyridin-7-amine] | < 0.01 µM | ++ (greater than 10-fold and less than or equal to 100-fold more active against CDK5 than CDK2) | 0.01 to 0.1 µM |
| CN1CCC(S(=O)(=O)c2ccc3cnc(Nc4ccc(S(C)(=O)=O)cc4)cc3n2)CC1 [Compound 271] | < 0.01 µM | + (10-fold or less more active against CDK5 than CDK2) | 0.01 to 0.1 µM |
| CN1CCC(C(C)(O)c2ccc3cnc(Nc4ccc(-c5cncnc5)cc4F)cc3n2)CC1 (stereo not drawn) [Compound 342] | < 0.01 µM | ++ (greater than 10-fold and less than or equal to 100-fold more active against CDK5 than CDK2) | 0.01 to 0.1 µM |
| NC1CCCN(C(=O)c2ccc3cnc(Nc4ccc(-n5cccn5)cc4F)cc3n2)C1 (stereo not drawn) [Compound 242, 2-(3-aminopiperidine-1-carbonyl)-N-[2-fluoro-4-(pyrazol-1-yl)phenyl]-1,6-naphthyridin-7-amine] | 0.1 to 1 µM | ++ (greater than 10-fold and less than or equal to 100-fold more active against CDK5 than CDK2) | > 1 µM |
| CN1CCC(C(C)(O)c2ccc3cnc(Nc4cccc(C(N)=O)c4)cc3n2)CC1 (stereo not drawn) [Compound 372] | < 0.01 µM | ++ (greater than 10-fold and less than or equal to 100-fold more active against CDK5 than CDK2) | < 0.01 µM |
| CN1CCC(O)(C(O)c2ccc3cnc(Nc4ccc(-n5cccn5)cc4F)cc3n2)CC1 (stereo not drawn) [Compound 240, 4-[(7-[[2-fluoro-4-(pyrazol-1-yl)phenyl]amino]-1,6-naphthyridin-2-yl) (hydroxy)methyl]-1-methylpiperidin-4-ol] | 0.1 to 1 µM | ++ (greater than 10-fold and less than or equal to 100-fold more active against CDK5 than CDK2) | > 1 µM |
